SMILES strings stand for the structures.

Data set [1] relates to IL-12-yellow fluorescent protein (YFP) reporter mouse bone marrow dendritic cells. In words: IL-12-YFP reporter dendritic cells, flow cytometric analysis. The class given is cell-based. Conditions: 24 hours, LPS or Pam3Cys ± 1 μg/ml MDP. As to the method: (§1) IL-12-yellow fluorescent protein (YFP) reporter mouse bone marrow dendritic cells were stimulated for 24 hours with 0.3 ng/ml LPS±1 μg/ml MDP (i.e., NOD2 agonist) in the presence of Example A3 (FIG. 2A). IL-12-yellow fluorescent protein (YFP) reporter mouse bone marrow dendritic cells were stimulated for 24 hours with 0.3 μg/ml Pam3Cys±1 μg/ml MDP (i.e., NOD2 agonist) in the presence of Example A3 (FIG. 2B). […] Data are represented as the mean±SEM of triplicate measurements. Levels of IL-12 p70 (FIG. 2C, left panel) and TNFα (FIG. 2C, right panel) in the cell culture supernatants from A were measured by ELISA techniques with commercially available kits. […] Data are represented as the mean±SEM of triplicate measurements.

A further data set relates to IL-12 p70. In words: IL-12 p70 in dendritic cell culture supernatants by ELISA. The class given is cell-based, mouse. The settings on record: supernatants from LPS ± MDP stimulation. The protocol: as §1
A general note: ELISA stands for enzyme-linked immunosorbent assay.

For the next data set, the system named is TNFα. In words: TNFα in dendritic cell culture supernatants by ELISA. Type of data set: cell-based, mouse. Conditions: supernatants from LPS ± MDP stimulation. The protocol:
as §1

The test system of another data set is HCT116 xenografts. In words: In vivo response of HCT116 xenografts, tolerability and body weight. Conditions: SCID mice with HCT116 xenografts. On the set-up: species or system CB-17 SCID mice. As to the method:
HCT116 colon cancer cells were purchased from ATCC (American Type Culture Collections) and cultured in DMEM (Dulbecco's Modified eagle medium—purchased from GIBCO) supplemented with 10% fetal calf serum. Five million cells were injected subcutaneously in the right flank of 6-8 week old male CB-17 SCID mice. When the mean tumor volume reached 80-120 mm^3, mice were randomized into 5 groups (n=5) and received either vehicle (10% NMP, 40% PEG, 50% H2O) or compound at the doses indicated.
Tumor volume and body weight were measured three times weekly. Tumor volume was calculated by the following formula: x^2y/2. Percent tumor growth inhibition after initiation of treatment with compound was calculated by: TGI=100×1−(tumor volumefinal−tumor volumeinitial for compound treated group)/(tumor volumefinal−tumor volumeinitial for […] control group).

For the molecule `Cc1ccccc1-c1cc2nc(Nc3cccc(N4CCOCC4)c3)ncc2[nH]1` [Example A3, N-(3-morpholinophenyl)-6-(o-tolyl)-5H-pyrrolo[3,2-d]pyrimidin-2-amine], in data set [1], the “cell viability as assessed by 7AAD exclusion” value is “no measurable effect” and the “percentage of YFP positive cells (IL-12 positive cells)” value is given as “minimal effect”. Also, the “mean fluorescence intensity YFP (amount of IL-12)” value in data set [1] (effect MDP-dependent) is recorded as “dose-dependent reduction”. Also, the “levels of IL-12 p70 in cell culture supernatants” value with IL-12 p70 was “dose-dependent reduction”. For the same molecule, in the data set with TNFα, the “levels of TNFα in cell culture supernatants” value was “dose-dependent reduction”. The “mean body weight loss” value in the data set on HCT116 xenografts (92 mg/kg Q.D. p.o.) was 7.8%. The tolerability result with HCT116 xenografts (Q.D. p.o., 18 days) is listed as “well tolerated”. Also, the “mean body weight loss in the treated arms compared to control” value in the data set on HCT116 xenografts (treated arms versus control) is “less than 6%”.
